Assay results reported in patent US5229265A, “Process for analyzing clastogenic agents” (Litron Laboratories, priority 1990, dated 1993).

System: polychromatic cells (PCEs)
Assay: PCE count in blood by flow cytometry
Assay type: in vivo, mouse
Conditions: mice dosed with DMBA
Protocol: When two dyes are used for simultaneous micronucleus and PCE discrimination, the cell suspension is prepared as follows: The Hoechst 33258 working solution described above is prepared and is filtered through an 0.2 micron Acro-disk (Gilman Sciences). In addition, a propidium iodide (PI) working solution is prepared (5 mg PI/100 ml phosphate buffered saline (PBS)). A buffer-dye solution is then prepared by adding the PI solution (100 μl) and Hoechst 33258 working solution (25 μl) to PBS (867.5 μl). The resulting buffer-dye solution is then dispensed (992.5 μl) into samples tubes. A sample of fixed blood (15 μl) is then added to the corresponding tube. When blood from a malaria (P. berghei) infected mouse was fixed and stained by this procedure, the bivariate pattern shown in FIG. 1B resulted, in which a stronger red fluorescence signal was obtained. In this case, good resolution is achieved if BSA is omitted from the stained cell suspension. The pH of the stained solution is important for good fluorescence emission profiles and resolution of the different cell populations. With Hoechst 33258 and propidium iodide, good results can be obtained in the range from pH 6 to pH 8. Lower or higher pH levels cause a broadening of the fluorescence patterns which adversely affect the resolution of the PCes and micronucleated cells. Operationally,it is advisable to store the fixed samples and analyze freshly stained samples.
Although it is inappropriate to directly compare the number of MNs in the 0 hr and 96 hr samples because of this PCE change, it is possible to normalize the data to take into account said change. An increase in the number of PCEs will cause a decrease in the total number of MNs counted in the PCE window for a 96 hour sample. […]
Another staining embodiment of this invention involves the use of dual parameter data acquisition in conjunction with two dyes, Hoechst 33258 and propidium iodide so as to analyze both MNs and PCEs. […] Propidium iodide endows the PCEs with a strong red fluorescence signal which pulls them out of the RBC contour. […]

Cc1c2ccccc2c(C)c2c1ccc1ccccc12 [DMBA, dimethyl benzathracene]
production of PCEs: production of PCEs is suppressed
